Converted amounts (≈) assume the structure as drawn.
Experiments:
human PBMCs = assay: Cytokine release from peripheral blood mononuclear cells (LEGENDplex panel); assay type: cell-based; settings: 18 h
Excerpt: The immunomodulatory effects of the selected desmuramylpeptides were examined in human primary peripheral blood mononuclear cells (PBMCs). This diverse mixture of immune cells provided a platform to investigate the effects of these NOD2 agonists within a physiologically relevant environment, encompassing other NOD2-interacting and downstream signaling proteins. […] Given that NOD2 activation often modulates the Toll-like receptor (TLR)-induced cytokine responses, we investigated the impact of combining desmuramylpeptides with lipopolysaccharide (LPS), a well-known TLR4 agonist, on cytokine secretion.[76]−[78]
The elicited cytokine profiles thus broadly reflect the structure–activity relationships obtained in the reporter gene assays.
Peripheral blood mononuclear cells were plated at a density of 1 × 10^6 cells/mL in 48-well plates containing 500 μL of growth medium. Cells were then treated with the compounds (2 μM) or the corresponding vehicle (0.1% DMSO), both in the absence and presence of LPS (10 ng/mL). Following an 18 h incubation period at 37 °C with 5% CO2, cell-free supernatants were collected and stored at −80 °C until analysis. […] Standard curves were constructed using recombinant cytokines provided in the kit. Data analysis was performed using Biolegend software Qognit and Prism (GraphPad, San Diego, CA, USA) software. The experiments were independently replicated four times. Statistical significance was determined using two-way analysis of variance (ANOVA) followed by Tukey’s multiple comparisons test.

BMDC/T-cell cocultures = assay: T cell cytokine release in BMDC/T-cell cocultures; assay type: cell-based, C57BL/6 mouse; settings: 10 μM; for levels of IL-6 and TNF-α secreted by CD4+ T cells: 72 h coculture
Procedure: For this study, we narrowed down the selection of suitable desmuramylpeptides even further. In order to assess the adjuvant potential of selected desmuramylpeptides with regard to their effect on DC-mediated activation of CD4^+ and CD8^+ T cells, we conducted an ex vivo antigen-presentation assay utilizing C57BL/6 mouse bone marrow-derived DCs (BMDCs). Upon stimulation with desmuramylpeptides at 10 μM, in conjunction with ovalbumin soluble protein (50 μg/mL), BMDCs were cocultured with carboxyfluorescein succinimidyl ester (CFSE)-labeled naïve ovalbumin-specific CD4^+ or CD8^+ T cells, which were isolated from splenocytes of OT II and OT I transgenic mice, respectively. […] Additionally, we investigated how the priming of T cells elicited by the tested compounds impacted the cytokine profiles secreted in BMDC/T-cell cocultures.
Following 72 h of coincubation with BMDCs (pretreated with desmuramylpeptides [10 μM] and washed), supernatants from CD4^+ and CD8^+ T cells were harvested as previously described. […] Standard curves were constructed using recombinant cytokines provided in the kit. Data analysis was conducted using FlowJo (Tree Star, Inc., Ashland, OR, USA) and Prism (GraphPad, San Diego, CA, USA) software. Each experiment was performed in duplicate and replicated in two independent biological runs.

[1] = system: human blood monocyte subsets; assay: Monocyte conversion assay in PBMCs (CD14/CD16 flow cytometry); assay type: cell-based; settings: 10 μM, 18 h, NT 19.5%
Excerpt: Engagement of NOD2 has been reported to increase the levels of an anti-inflammatory monocyte subset, denoted as patrolling monocytes (CD14^–, CD16^+2), thus exerting a counterintuitive role in inflammatory processes, while concomitantly increasing the levels of total blood monocytes (released from bone marrow).[18] […] This process involves a transition from the inflammatory monocytes, typified by CD14^+CD16^–, through an intermediate subset of CD14^+CD16^+ monocytes. […] To recapitulate this phenomenon, we modified the reported procedure and employed PBMCs in lieu of isolated monocytes. Identification of human blood monocyte subsets was achieved through flow cytometry, utilizing the expression of CD14 and CD16 markers as distinguishing criteria. […] Similar to what has been reported (e.g., inactivity of murabutide),[18] also in our case not all NOD2 agonists were equally endowed with the ability to generate patrolling monocytes.
The monocyte conversion assay was conducted following previously established methods, with some adjustments.[18] Peripheral blood mononuclear cells were plated at a density of 3 × 10^6 cells/mL in 24-well plates containing 700 μL of growth medium. Cells were then treated with MDP and desmuramylpeptides (10 μM) or the corresponding vehicle (0.1% DMSO). Following an incubation period at 37 °C with 5% CO2, cells were transferred to 1.5 mL tube using phosphate-buffered saline (PBS) and scraper. The cells were blocked with human TruStain Fcx (BioLegend) and stained using antihuman CD16 antibodies/Alexa Fluor 488 (BioLegend); antihuman CD14 antibodies/PE-Cy7 (BioLegend); antihuman HLA-DR antibodies/APC-Fire750 (BioLegend) and blocked with TrueStain Monocyte Blocker. A viability dye Helix NP Blue (BioLegend) was added to the previous panel to discriminate live cells. PBMC were analyzed using an Attune NxT flow cytometer (Thermo Fisher Scientific, Waltham, MA, USA) and the FlowJo software (Tree Star, Inc., Ashland, OR, USA). Initially, lymphocytes (CD14^–, CD16^–) and NK (CD16^–, HLA-DR^–) were eliminated, after which classical, intermediate and nonclassical monocytes were specifically identified by selective gating strategy as follows: CD14^+ CD16^– (classical), CD14^+ CD16^+ (intermediate) and CD14^– CD16^+ (nonclassical). Each experiment was conducted in duplicate and repeated in three independent biological replicates.

[2] = Kinetic solubility (method of Hoelke et al.); assay type: physicochemical
Excerpt: Park et al. have shown that the degree of saturation of fatty acids exerts a profound impact on permeability of fatty acylated peptides—a higher degree of unsaturation results in higher permeability.[43] PUFA can also induce significant biophysical perturbations upon incorporation into membrane phospholipids.[67],[68] […] Given that the hydrophobicity of fatty acyl residues in general reduces as the number of unsaturated sites increases,[69],[70] we decided to ascertain how such structural modifications translate to the kinetic solubility of the molecule as a whole. […] The acylation with PUFA thus provides an elegant, albeit counterintuitive, approach, by which permeability of the molecule as a whole as well as its capacity for liposomal encapsulation can be enhanced without completely abolishing its aqueous solubility.

Structure (SMILES)	levels of LPS-induced IL-10 (human PBMCs; 2 μM + LPS 10 ng/mL)	production of MCP-1 and IFN-γ compared to the MDP/LPS combination (human PBMCs; 2 μM + LPS 10 ng/mL)	secretion of IL-1β, IL-10 and TGFβ compared to the MDP/LPS combination (human PBMCs; 2 μM + LPS 10 ng/mL)	levels of IL-6 and TNF-α secreted by CD4+ T cells (BMDC/T-cell cocultures)	stimulating IL-2 and IL-9 production (BMDC/T-cell cocultures; CD4+ T cell coculture, 72 h)	levels of nonclassical monocytes [1] [%]	solubility kinetic [2] [µM]	production of the Th9-associated cytokine IL-9 (BMDC/T-cell cocultures; CD4+ T cell coculture, 72 h)	diminished solubility compared to parent compound 1 ([2]; kinetic solubility) [factor]	production of IL-12p70 and TNF-α compared to MDP (human PBMCs; 2 μM + LPS 10 ng/mL)	capacity to induce IP-10 and IFN-γ secretion (human PBMCs; 2 μM + LPS 10 ng/mL, versus MDP)	production of proinflammatory cytokines and chemokines including IL-6, IL-8 and MCP-1 (human PBMCs; 2 μM alone (no LPS))
CCCC(=O)Oc1ccc(/C=C/C(=O)NCC(=O)N[C@H](C(=O)N[C@H](CCC(=O)OCC)C(=O)OCC)C(C)C)cc1OC [Compound 3, Diethyl ((E)-3-(4-(Butyryloxy)-3-methoxyphenyl)acryloyl)glycyl-L-valyl-D-glutamate]	amplified	significantly diminished production	increased secretion	slightly increased	most notable	31.9	178 (≈ 108 µg/mL)	–	–	–	–	–
CC/C=C\C/C=C\C/C=C\C/C=C\C/C=C\CCCC(=O)Oc1ccc(/C=C/C(=O)NCC(=O)N[C@H](C(=O)N[C@H](CCC(=O)OCC)C(=O)OCC)C(C)C)cc1OC [Compound 23, Diethyl ((E)-3-(4-(((5Z,8Z,11Z,14Z,17Z)-Icosa-5,8,11,14,17-pentaenoyl)oxy)-3-methoxyphenyl)acryloyl)glycyl-L-valyl-D-glutamate]	amplified	significantly diminished production	increased secretion	slightly increased	most notable	31.0	105 (≈ 86.1 µg/mL)	augmented	4	–	–	–
CCOC(=O)CC[C@@H](NC(=O)[C@@H](NC(=O)CNC(=O)/C=C/c1ccc(OC(=O)CO[C@H]2CC[C@@]3(C)C(=CC[C@H]4[C@@H]5CC[C@H]([C@H](C)CCCC(C)C)[C@@]5(C)CC[C@@H]43)C2)c(OC)c1)C(C)C)C(=O)OCC [Compound 26, Diethyl ((E)-3-(4-(2-(((8S,9S,10R,13R,14S,17R)-10,13-Dimethyl-17-((R)-6-methylheptan-2-yl)-2,3,4,7,8,9,10,11,12,13,14,15,16,17-tetradecahydro-1H-cyclopenta[a]phenanthren-3-yl)oxy)acetoxy)-3-methoxyphenyl)acryloyl)glycyl-L-valyl-D-glutamate]	amplified	–	–	–	–	44.8	–	–	–	higher production	comparable to MDP	smaller increases
